Results on 37 compounds are retold here after patent US9884832B2 (priority 2011, dated 2018).

Chain of AM2 S31 (wild-type serine at position 31 in the M2 protein), influenza virus A/Udorn/72 (P0DOF5 whole entry, looked up): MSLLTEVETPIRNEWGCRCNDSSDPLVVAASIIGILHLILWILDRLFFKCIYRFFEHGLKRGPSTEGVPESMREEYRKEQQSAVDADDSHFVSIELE

One experiment has as its target AM2 S31 (wild-type serine at position 31 in the M2 protein), influenza virus A/Udorn/72 (Influenza A virus, UniProt P0DOF5). The experiment in a line: cell-based. To be noted: 100 uM; Xenopus oocytes; activity range class; read-out: S31 OOcyte Inhibition at 100 uM (%).
By inhibition is commonly meant the drop in the measured response relative to a control, in per cent. Regarding `c1ccc(-c2ncc(CNC34CC5CC(CC(C5)C3)C4)cn2)nc1` [Example 64a, N-((2-(pyridin-2-yl)pyrimidin-5-yl)methyl)adamantan-1-amine], the inhibition at 100 µM was in the range of 0 to 30%.
On to `Brc1ccc(CNC23CC4CC(CC(C4)C2)C3)nc1` [Example 54a, Adamantan-1-yl-(5-bromo-pyridin-2-ylmethyl)-amine], for which the inhibition at 100 µM lay within 31 to 95%.
As to `c1coc(-c2ccc(CNC34CC5CC(CC(C5)C3)C4)cc2)c1` [Example 31a, N-(4-(Furan-2-yl)benzyl)adamantan-1-amine], the inhibition at 100 µM was 0 to 30%.
Consider `c1cc(-c2ccc(CNC34CC5CC(CC(C5)C3)C4)cn2)cs1` [Example 59a, N-((6-(thiophen-3-yl)pyridin-3-yl)methyl)adamantan-1-amine], for which the inhibition at 100 µM is 0 to 30%.
Consider `Brc1cccc(CNC23CC4CC(CC(C4)C2)C3)c1` [Example 3a, N-(3-Bromobenzyl)adamantan-1-amine], for which the inhibition at 100 µM fell in the range of 31 to 95%.
With `c1csc(-c2ccc(CNC34CC5CC(CC(C5)C3)C4)cc2)c1` [Example 29a, N-(4-(Thiophen-2-yl)benzyl)adamantan-1-amine methanesulfonate], the inhibition at 100 µM lay in the range of 0 to 30%.
Consider `c1ccc(-c2cc(CNC34CC5CC(CC(C5)C3)C4)on2)cc1` [Example 164a], for which the inhibition at 100 µM is 0 to 30%.
`c1cc(CNC23CC4CC(CC(C4)C2)C3)cs1` [Example 68a, Adamantan-1-yl-thiophen-3-ylmethyl-amine]: the inhibition at 100 µM was 31 to 95%.
With `c1cc(CNC23CC4CC(CC(C4)C2)C3)cc(-c2ccco2)c1` [Example 30a, N-(3-(Furan-2-yl)benzyl)adamantan-1-amine], the inhibition at 100 µM fell in the range of 0 to 30%.
For the compound `Oc1cc(OCc2ccccc2)ccc1CNC12CC3CC(CC(C3)C1)C2` [Example 37a, 2-(Adamantan-1-ylaminomethyl)-5-benzyloxy-phenol], the inhibition at 100 µM lay in the range of 31 to 95%.
On the same count and under the same terms, the value for `Cc1csc2sc(CNC34CC5CC(CC(C5)C3)C4)c(C)c12` [Example 176a] was 0 to 30%.
As to `Clc1ccc2[nH]c(CNC34CC5CC(CC(C5)C3)C4)nc2c1` [Example 181a, Adamantan-1-yl-(5-chloro-1H-benzoimidazol-2-ylmethyl)-amine], the inhibition at 100 µM fell in the range of 0 to 30%.
Turning to `c1ccn2c(CNC34CC5CC(CC(C5)C3)C4)cnc2c1` [Example 203a, Adamantan-1-yl-imidazo[1,2-a]pyridin-3-ylmethyl-amine], the inhibition at 100 µM was 31 to 95%.
As for `Cc1nc(CNC23CC4CC(CC(C4)C2)C3)no1` [Example 96a, N-((5-methyl-1,2,4-oxadiazol-3-yl)methyl)adamantan-1-amine], the inhibition at 100 µM lay within 31 to 95%.
`Cn1cc(C(F)(F)F)c(-c2ccc(CNC34CC5CC(CC(C5)C3)C4)s2)n1` [Example 155a, N-((5-(1-methyl-4-(trifluoromethyl)-1H-pyrazol-3-yl)thiophen-2-yl)methyl)adamantan-1-amine]: the inhibition at 100 µM lay within 0 to 30%.
Turning to `Brc1ncc(CNC23CC4CC(CC(C4)C2)C3)cn1` [Example 57a, N-((2-bromopyrimidin-5-yl)methyl)adamantan-1-amine], the inhibition at 100 µM fell in the range of 0 to 30%.
Still for that read-out and setting: the value for `Oc1cc(-c2ccoc2)ccc1CNC12CC3CC(CC(C3)C1)C2` [Example 46a] was 0 to 30%.

Still in this experiment, the particulars now being: 100 uM; Xenopus oocytes; numeric value; read-out: S31 OOcyte Inhibition at 100 uM (%).
Consider `c1cn(-c2ccc(CNC34CC5CC(CC(C5)C3)C4)cc2)cn1` [Example 36a, N-(4-(1H-imidazol-1-yl)benzyl)adamantan-1-amine], for which the inhibition at 100 µM turned out to be 16.1%.

Still in this experiment, the particulars now being: Table 1; 100 uM; Xenopus oocytes, pH 5.5, -20 mV; read-out: S31 OOcyte Inhibition at 100 uM (%).
For `CSc1ccc(CNC2C3CC4CC(C3)CC2C4)cc1` (stereo not shown) [Example 103, Adamantan-2-yl-(4-methylsulfanyl-benzyl)-amine], the inhibition at 100 µM is 0 to 30%.
Regarding `c1cc2cc(CNC34CC5CC(CC(C5)C3)C4)sc2o1` [Example 83, Adamantan-1-yl-thieno[2,3-b]furan-5-ylmethyl-amine], the inhibition at 100 µM was 31 to 95%.
Take `CC(C)(C)C1CCC(NCc2ccc(O)cc2O)CC1` (stereo not shown) [Example 109, 4-[(4-tert-Butyl-cyclohexylamino)-methyl]-benzene-1,3-diol]: the inhibition at 100 µM is 31 to 95%.
On the same count and under the same terms, the value for `c1cnn(-c2ccc(CNC34CC5CC(CC(C5)C3)C4)cc2)c1` [Example 35, Adamantan-1-yl-(4-pyrazol-1-yl-benzyl)-amine] was 0 to 30%; that for `c1ccc(CNC23CC4CC(CC(C4)C2)C3)cc1` [Example 8, Adamantan-1-yl-benzyl-amine] was 31 to 95%.
With `COc1ccccc1CNC12CC3CC(CC(C3)C1)C2` [Example 29, Adamantan-1-yl-(2-methoxy-benzyl)-amine], the inhibition at 100 µM fell in the range of 0 to 30%.
Turning to `O=[N+]([O-])c1ccccc1CNC12CC3CC(CC(C3)C1)C2` [Example 30, Adamantan-1-yl-(2-nitro-benzyl)-amine], the inhibition at 100 µM fell in the range of 31 to 95%.
As to `Oc1ccc(CNC23CC4CC(CC(C4)C2)C3)cc1O` [Example 45, 4-(Adamantan-1-ylaminomethyl)-benzene-1,2-diol], the inhibition at 100 µM was 31 to 95%.
In the case of `O=C(Oc1ccc(CNC23CC4CC(CC(C4)C2)C3)cc1)c1cccs1` [Example 37, Thiophene-2-carboxylic acid 4-(adamantan-1-ylaminomethyl)-phenyl ester], the inhibition at 100 µM is 0 to 30%.
`c1cc(CNC23CC4CC(CC(C4)C2)C3)c2cc[nH]c2c1` [Example 96, Adamantan-1-yl-(1H-indol-4-ylmethyl)-amine]: the inhibition at 100 µM lay in the range of 31 to 95%.
Still for that read-out and setting: the value for `CC(=O)Oc1ccc(CNC23CC4CC(CC(C4)C2)C3)c(O)c1` [Example 60, Acetic acid 4-(adamantan-1-ylaminomethyl)-3-hydroxy-phenyl ester] was 31 to 95%; that for `c1ccc2[nH]c(CNC34CC5CC(CC(C5)C3)C4)nc2c1` [Example 92, Adamantan-1-yl-(1H-benzoimidazol-2-ylmethyl)-amine] was 0 to 30%; that for `Nc1ncc(CNC23CC4CC(CC(C4)C2)C3)cn1` [Example 75, 5-(Adamantan-1-ylaminomethyl)-pyrimidin-2-ylamine] was 31 to 95%.

Staying with this experiment, now noted: Table 3; 100 uM; Xenopus oocytes, pH 5.5, -20 mV; read-out: S31 OOcyte Inhibition at 100 uM (%).
For `Brc1ccccc1-c1cc(CNC23CC4CC(CC(C4)C2)C3)no1` [Example 43b, N-((5-(2-bromophenyl)isoxazol-3-yl)methyl)adamantan-1-amine], the inhibition at 100 µM was in the range of 0 to 30%.
As to `c1cc2nc(CNC34CC5CC(CC(C5)C3)C4)sc2s1` [Example 77b, Adamantan-1-yl-thieno[3,2-d]thiazol-2-ylmethyl-amine], the inhibition at 100 µM lay within 0 to 30%.
On the same count and under the same terms, with `Cc1ccc(-c2ccc(CNC34CC5CC(CC(C5)C3)C4)s2)o1` [Example 52b, N-((5-(5-Methylfuran-2-yl)thiophen-2-yl)methyl)adamantan-1-amine] the figure was 0 to 30%; with `Clc1ncc(CNC23CC4CC(CC(C4)C2)C3)s1` [Example 13b, N-((2-chlorothiazol-5-yl)methyl)adamantan-1-amine], 31 to 95%; with `c1sc(CNC23CC4CC(CC(C4)C2)C3)cc1C1CC1` [Example 48b, N-((4-Cyclopropylthiophen-2-yl)methyl)adamantan-1-amine], 0 to 30%.
As for `COCc1nc(CNC23CC4CC(CC(C4)C2)C3)no1` [Example 23b, N-((5-(methoxymethyl)-1,2,4-oxadiazol-3-yl)methyl)adamantan-1-amine], the inhibition at 100 µM was in the range of 0 to 30%.
